This experiment concerns GST-Bcl-2. Put plainly: TR-FRET binding assay, Bcl-2. The conditions noted are these: TR-FRET Ki values. Put shortly: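 Ki values come from Wang's competitive-binding equation applied to TR-FRET signal (excitation 340/35 nm; emission 520/525 nm F-Bak peptide, 495/510 nm Tb antibody). Protein, probe and antibody incubated with compound 3 h at room temperature; dilution series began at 50 μM as 2× stock in 10% DMSO.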
Turning to `Cn1cncc1CNc1ccc(S(=O)(=O)NC(=O)c2ccc(N3CCN(CC4=C(c5ccc(Cl)cc5)CC(C)(C)CC4)CC3)cc2Oc2ccc3[nH]ccc3c2)cc1[N+](=O)[O-]` [EXAMPLE 360, 4-(4-{[2-(4-chlorophenyl)-4,4-dimethylcyclohex-1-en-1-yl]methyl}piperazin-1-yl)-2-(1H-indol-5-yloxy)-N-[(4-{[(1-methyl-1H-imidazol-5-yl)methyl]amino}-3-nitrophenyl)sulfonyl]benzamide], the “Binding selectivity ratio (Bcl-XL Ki/Bcl-2 Ki)” value (“Binding selectivity ratio” below) was found to be 633.9.
Regarding `CC1(C)CCC(CN2CCN(c3ccc(C(=O)NS(=O)(=O)c4ccc(NCCCN5CCS(=O)(=O)CC5)c([N+](=O)[O-])c4)c(Oc4cccc5[nH]ccc45)c3)CC2)=C(c2ccc(Cl)cc2)C1` [EXAMPLE 295, 4-(4-{[2-(4-chlorophenyl)-4,4-dimethylcyclohex-1-en-1-yl]methyl}piperazin-1-yl)-N-[(4-{[3-(1,1-dioxidothiomorpholin-4-yl)propyl]amino}-3-nitrophenyl)sulfonyl]-2-(1H-indol-4-yloxy)benzamide], the “Binding selectivity ratio” value is given as 599.4.
The figure for `CN(C)CC(=O)N1CCO[C@@H](CNc2ccc(S(=O)(=O)NC(=O)c3ccc(N4CCN(CC5=C(c6ccc(Cl)cc6)CC(C)(C)CC5)CC4)cc3Oc3cccc4[nH]cnc34)cc2[N+](=O)[O-])C1` [EXAMPLE 438, 2-(1H-benzimidazol-4-yloxy)-4-(4-{[2-(4-chlorophenyl)-4,4-dimethylcyclohex-1-en-1-yl]methyl}piperazin-1-yl)-N-{[4-({[(2S)-4-(N,N-dimethylglycyl)morpholin-2-yl]methyl}amino)-3-nitrophenyl]sulfonyl}benzamide] is 34.5.
The figure for `CC1(C)CCC(CN2CCN(c3ccc(C(=O)NS(=O)(=O)c4ccc(NCC5CCOCC5)c([N+](=O)[O-])c4)c(Oc4ccc5[nH]ccc5c4)c3)CC2)=C(c2ccc(Cl)cc2)C1` [Example 177, 4-(4-{[2-(4-chlorophenyl)-4,4-dimethylcyclohex-1-en-1-yl]methyl}piperazin-1-yl)-2-(1H-indol-5-yloxy)-N-({3-nitro-4-[(tetrahydro-2H-pyran-4-ylmethyl)amino]phenyl}sulfonyl)benzamide] is 799.7; for `CC1(C)CCC(CN2CCN(c3ccc(C(=O)NS(=O)(=O)c4cnc(OCC5(F)CCOCC5)c(C#N)c4)c(Oc4cccc5[nH]ccc45)c3)CC2)=C(c2ccc(Cl)cc2)C1` [EXAMPLE 393, 4-(4-{[2-(4-chlorophenyl)-4,4-dimethylcyclohex-1-en-1-yl]methyl}piperazin-1-yl)-N-({5-cyano-6-[(4-fluorotetrahydro-2H-pyran-4-yl)methoxy]pyridin-3-yl}sulfonyl)-2-(1H-indol-4-yloxy)benzamide] it is 1110.
Turning to “4-(4-{[2-(4-chlorophenyl)-4,4-dimethylcyclohex-1-en-1-yl]methyl}piperazin-1-yl)-N-{[4-({[Cis-4-hydroxy-1-adamantyl]methyl}amino)-3-nitrophenyl]sulfonyl}-2-(1H-indol-5-yloxy)benzamide [EXAMPLE 322]”, the “Binding selectivity ratio” value is given as over 3591.4.
Turning to `CO[C@H]1CC[C@H](CNc2ccc(S(=O)(=O)NC(=O)c3ccc(N4CCN(CC5=C(c6ccc(Cl)cc6)CC(C)(C)CC5)CC4)cc3Oc3ccc4[nH]ccc4c3)cc2[N+](=O)[O-])CC1` [EXAMPLE 311, Trans-4-(4-{[2-(4-chlorophenyl)-4,4-dimethylcyclohex-1-en-1-yl]methyl}piperazin-1-yl)-2-(1H-indol-5-yloxy)-N-[(4-{[(4-methoxycyclohexyl)methyl]amino}-3-nitrophenyl)sulfonyl]benzamide], the “Binding selectivity ratio” value is given as over 2538.5.
Regarding `CC(c1ccccc1-c1ccc(Cl)cc1)N1CCN(c2ccc(C(=O)NS(=O)(=O)c3ccc(NCC4CCOCC4)c([N+](=O)[O-])c3)c(Oc3ccc4[nH]ccc4c3)c2)CC1` (centres unmarked) [EXAMPLE 252, 4-{4-[1-(4′-chloro-1,1′-biphenyl-2-yl)ethyl]piperazin-1-yl}-2-(1H-indol-5-yloxy)-N-({3-nitro-4-[(tetrahydro-2H-pyran-4-ylmethyl)amino]phenyl}sulfonyl)benzamide], the “Binding selectivity ratio” value is reported as over 8570.3.
In the case of `C[C@H](Nc1ccc(S(=O)(=O)NC(=O)c2ccc(N3CCN(CC4=C(c5ccc(Cl)cc5)CC(C)(C)CC4)CC3)cc2Oc2ccc3[nH]ccc3c2)cc1[N+](=O)[O-])c1ccccc1` [EXAMPLE 378, 4-(4-{[2-(4-chlorophenyl)-4,4-dimethylcyclohex-1-en-1-yl]methyl}piperazin-1-yl)-2-(1H-indol-5-yloxy)-N-[(3-nitro-4-{[(1S)-1-phenylethyl]amino}phenyl)sulfonyl]benzamide], the “Binding selectivity ratio” value is over 10.5.
Take `O=C(NS(=O)(=O)c1ccc(NCC2CCOCC2)c([N+](=O)[O-])c1)c1ccc(N2CCN(CC3=C(c4ccc(Cl)cc4)CCC(N4CCOCC4)C3)CC2)cc1Oc1ccc2[nH]ccc2c1` (centres unmarked) [EXAMPLE 249, 4-(4-{[2-(4-chlorophenyl)-5-morpholin-4-ylcyclohex-1-en-1-yl]methyl}piperazin-1-yl)-2-(1H-indol-5-yloxy)-N-({3-nitro-4-[(tetrahydro-2H-pyran-4-ylmethyl)amino]phenyl}sulfonyl)benzamide]: the “Binding selectivity ratio” value was over 7302.0.
In the case of `CC(=O)N1CCC(Nc2ccc(S(=O)(=O)NC(=O)c3ccc(N4CCN(CC5=C(c6ccc(Cl)cc6)CC(C)(C)CC5)CC4)cc3Oc3cccc4[nH]ccc34)cc2[N+](=O)[O-])CC1` [EXAMPLE 337, N-({4-[(1-acetylpiperidin-4-yl)amino]-3-nitrophenyl}sulfonyl)-4-(4-{[2-(4-chlorophenyl)-4,4-dimethylcyclohex-1-en-1-yl]methyl}piperazin-1-yl)-2-(1H-indol-4-yloxy)benzamide], the “Binding selectivity ratio” value is listed as over 1233.3.
With `CN1CCC(Nc2ccc(S(=O)(=O)NC(=O)c3ccc(N4CCN(CC5=C(c6ccc(Cl)cc6)CC(C)(C)CC5)CC4)cc3Oc3cccc4[nH]cnc34)cc2[N+](=O)[O-])CC1` [EXAMPLE 418, 2-(1H-benzimidazol-4-yloxy)-4-(4-{[2-(4-chlorophenyl)-4,4-dimethylcyclohex-1-en-1-yl]methyl}piperazin-1-yl)-N-({4-[(1-methylpiperidin-4-yl)amino]-3-nitrophenyl}sulfonyl)benzamide], the “Binding selectivity ratio” value turned out to be 404.7.
With `CC1(C)CCC(CN2CCN(c3ccc(C(=O)NS(=O)(=O)c4ccc(NCC5CCS(=O)(=O)CC5)c([N+](=O)[O-])c4)c(Oc4cccc5[nH]ccc45)c3)CC2)=C(c2ccc(Cl)cc2)C1` [EXAMPLE 301, 4-(4-{[2-(4-chlorophenyl)-4,4-dimethylcyclohex-1-en-1-yl]methyl}piperazin-1-yl)-N-[(4-{[(1,1-dioxidotetrahydro-2H-thiopyran-4-yl)methyl]amino}-3-nitrophenyl)sulfonyl]-2-(1H-indol-4-yloxy)benzamide], the “Binding selectivity ratio” value is listed as over 2268.0.
For `CC1(C)CC(c2ccc(Cl)cc2)=C(CN2CCN(c3ccc(C(=O)NS(=O)(=O)c4ccc(NCC5CCOCC5)c([N+](=O)[O-])c4)c(Oc4ccc5[nH]ccc5c4)c3)CC2)CO1` [EXAMPLE 182, 4-(4-{[4-(4-chlorophenyl)-6,6-dimethyl-5,6-dihydro-2H-pyran-3-yl]methyl}piperazin-1-yl)-2-(1H-indol-5-yloxy)-N-({3-nitro-4-[(tetrahydro-2H-pyran-4-ylmethyl)amino]phenyl}sulfonyl)benzamide], the “Binding selectivity ratio” value is recorded as over 7595.8.

These data come from patent US9125913B2, “Bcl-2-selective apoptosis-inducing agents for the treatment of cancer and immune diseases” (AbbVie Inc., priority 2008, dated 2015).
